Measured values as given in patent publication US12378249B2, “Isoquinoline compounds and uses thereof” (Genentech, Inc., priority 2018, dated 2025).

biological target: HPK1 (Homo sapiens (Human), UniProt Q92918); experiment: HPK1 Lantha Binding Assay (Lanth); details: 2 nM HPK1, 15 nM Tracer222, Morrison Ki fit, read-out: HPK1 Ki (nM), L = Lanth
Procedure: Example B2: HPK1 Lantha Binding Assay (“Lanth”)
Procedure: I. Compound Dilution:
The compounds to be tested were diluted by preparing 12.5 uL/well of 5 mM compound (100×) in columns 2 and 13 and 10 ul/well of DMSO in columns 3-12, 14-23, and wells A1-H1 and I24-P24 of the compound plate using a Bravo liquid handling platform. For the reference compound, the top concentration was 1 mM. To the plate was added 10 ul 2 mM staurosporine in wells J1-P1 and A24-H24. A 11 point 5-fold compound serial dilution was performed using the Bravo liquid handling platform. From the plate were transferred 2.5 ul of the solutions from column 2 and column 13 to the 10 ul of DMSO in columns 3 and 14 & so on. The compound plate was centrifuged at 2500 rpm for 1 min. From the compound plate was transferred 80 nl of the compounds into an assay plate using the Echo liquid handler system. One compound plate makes two assay plates. Each assay plate is sealed and stored in an N2 cabinet.
The following assay concentrations and times were used: 2 nM HPK1, 2 nM Eu-Anti-GST Ab, and 15 nM Tracer222, with 60 min incubation time.
III. HPK Lantha Binding Assay:
For the binding assay, 4 ul 2X HPK1 and Eu-anti-GST antibody were added to each well of the assay plate using a Multidrop reagent dispenser. The solutions were incubated in a 23 C incubator for 1 h. To each well of the assay plate was added 4 ul 2× Tracer-222 using a Multidrop reagent dispenser. The solutions were again incubated in a 23 C incubator for 1 h. The results of the assay were read using an Envision plate reader with the following parameters:TR_FRET, 340ex/615 and 665em; 100 usec Delay; and 200 usec integration.
Compound Ki was analyzed using Morrison ki fit model in XL-fit • a. fit=(1-((((E+x)+(Ki*(1+(S/Kd))))−(((((E+x)+(Ki*(1+(S/Kd))))^2)−((4*E)*x))^0.5))/(2*E))) • res=(y-fit) • b. Parameters: • E=enzyme concentration • S=Tracer222 concentration, Kd=Tracer222 Kd • All measurements reported using the same units (uM)
Exemplary compounds were tested in the binding assays.

Sequence of HPK1 (Homo sapiens (Human), UniProt Q92918) (Q92918 1-346): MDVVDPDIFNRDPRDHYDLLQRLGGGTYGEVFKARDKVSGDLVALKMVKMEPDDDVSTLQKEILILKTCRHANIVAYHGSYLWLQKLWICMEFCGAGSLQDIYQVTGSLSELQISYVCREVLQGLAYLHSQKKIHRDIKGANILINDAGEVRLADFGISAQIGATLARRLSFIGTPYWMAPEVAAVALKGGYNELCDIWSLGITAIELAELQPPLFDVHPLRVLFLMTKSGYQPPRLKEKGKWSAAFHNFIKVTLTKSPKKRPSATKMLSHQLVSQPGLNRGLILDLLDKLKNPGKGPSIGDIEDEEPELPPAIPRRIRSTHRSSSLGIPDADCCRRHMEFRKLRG

Row | Structure (SMILES) | Ki
1 | Clc1cccc(Cl)c1-c1ccc2cnc(Nc3ccncn3)cc2c1 [Compound 101, 6-(2,6-dichlorophenyl)-N-(pyrimidin-4-yl)isoquinolin-3-amine] | 110 nM
2 | Fc1cccc(Cl)c1-c1ccc2cnc(Nc3ccncn3)cc2c1 [Compound 104, 6-(2-chloro-6-fluorophenyl)-N-(pyrimidin-4-yl)isoquinolin-3-amine] | 57 nM

biological target: HPK1 (Homo sapiens (Human), UniProt Q92918, S171E/T165E); experiment: HPK1-FL HTRF Enzymatic Assay (HTRF); type: biochemical; details: HPK full length T165E S171E 0.125 nM, ATP 1 mM, Biotin-SLP76 100 nM, read-out: HPK1 Ki (nM), H = HTRF
Sequence (Q92918 whole entry T165E/S171E): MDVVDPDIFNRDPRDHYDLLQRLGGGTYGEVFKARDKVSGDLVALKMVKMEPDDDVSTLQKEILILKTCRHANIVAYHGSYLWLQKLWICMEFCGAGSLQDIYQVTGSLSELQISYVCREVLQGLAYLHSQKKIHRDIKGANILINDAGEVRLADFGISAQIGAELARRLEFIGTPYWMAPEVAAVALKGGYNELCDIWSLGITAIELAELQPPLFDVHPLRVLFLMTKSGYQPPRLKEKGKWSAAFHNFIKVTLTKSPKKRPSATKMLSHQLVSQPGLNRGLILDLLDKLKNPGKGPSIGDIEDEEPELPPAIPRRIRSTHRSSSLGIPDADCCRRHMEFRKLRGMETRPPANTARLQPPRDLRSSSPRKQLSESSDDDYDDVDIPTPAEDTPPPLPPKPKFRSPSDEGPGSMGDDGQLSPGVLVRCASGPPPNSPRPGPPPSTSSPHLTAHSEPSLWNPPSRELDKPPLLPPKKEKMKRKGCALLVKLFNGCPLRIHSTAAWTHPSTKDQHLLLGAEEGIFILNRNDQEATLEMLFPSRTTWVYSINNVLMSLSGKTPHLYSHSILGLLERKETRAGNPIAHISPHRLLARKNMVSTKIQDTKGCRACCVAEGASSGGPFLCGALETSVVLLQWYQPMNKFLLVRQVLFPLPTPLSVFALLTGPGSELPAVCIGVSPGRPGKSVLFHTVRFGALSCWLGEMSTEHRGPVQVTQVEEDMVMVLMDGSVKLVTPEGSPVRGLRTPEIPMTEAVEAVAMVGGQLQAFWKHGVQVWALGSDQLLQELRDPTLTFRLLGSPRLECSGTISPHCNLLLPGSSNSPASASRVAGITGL
Outline: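 Full-length HPK1 double mutant, preincubated 30 min with compound, then phosphorylates Biotin-SLP-76 at 1 mM ATP for 60 min in HEPES pH 7.5/MgCl2/TCEP/Brij-35 buffer. Phospho-product detected by TR-FRET (Eu-anti-pSLP76, SA-XL665) after 60 min; 665/620 ratio gives % activity, from which Ki is determined.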

Row | Structure (SMILES) | Ki
3 | Cc1c(N)cncc1-c1cc2cc(Nc3cc4n(n3)CC(=O)N(C(C)C)CC4O)ncc2cc1F (single isomer, unassigned) [Compound 153b] | 0.075 nM
4 | Cc1c(-c2cc3cc(Nc4cc5n(n4)CC(=O)N(C)CC54CC4)ncc3cc2F)cnc2c1NCC[C@@]2(C)O (single isomer, unassigned) [Compound 229b] | 0.016 nM
5 | Cc1ncc(-c2cc3cc(Nc4cc5n(n4)CC(=O)N(C(C)C)CC5)ncc3c(O)c2F)c(C)c1N [Compound 133, 2-((6-(5-amino-4,6-dimethylpyridin-3-yl)-7-fluoro-8-hydroxyisoquinolin-3-yl)amino)-6-isopropyl-5,6-dihydro-4H-pyrazolo[1,5-d][1,4]diazepin-7(8H)-one] | 3.7 nM
6 | Cc1c(-c2cc3cc(Nc4cc5n(n4)CC(=O)N(CCN4CCOCC4)CC5)ncc3cc2F)cnc2c1NCCO2 [Compound 132, 2-[[7-fluoro-6-(8-methyl-2,3-dihydro-1H-pyrido[2,3-b][1,4]oxazin-7-yl)-3-isoquinolyl]amino]-6-(2-morpholinoethyl)-5,8-dihydro-4H-pyrazolo[1,5-d][1,4]diazepin-7-one] | 0.02 nM
7 | CN1CCc2cc(Nc3cc4cc(-c5cncc(N)c5C(F)(F)F)c(F)cc4cn3)nn2CC1=O [Compound 227, 2-((6-(5-amino-4-(trifluoromethyl)pyridin-3-yl)-7-fluoroisoquinolin-3-yl)amino)-6-methyl-5,6-dihydro-4H-pyrazolo[1,5-d][1,4]diazepin-7(8H)-one] | 0.29 nM
8 | Cc1c(-c2cc3cc(Nc4cc5n(n4)CC(=O)N(C)CC5)ncc3cc2F)cnc2c1CCCO2 [Compound 190, 2-((7-fluoro-6-(5-methyl-3,4-dihydro-2H-pyrano[2,3-b]pyridin-6-yl)isoquinolin-3-yl)amino)-6-methyl-5,6-dihydro-4H-pyrazolo[1,5-d][1,4]diazepin-7(8H)-one] | 0.24 nM
9 | CC(C)N1CCc2cc(Nc3cc4cc(C(=O)N5CCN(C)CC5)c(F)cc4cn3)nn2CC1=O [Compound 124, 2-((7-fluoro-6-(4-methylpiperazine-1-carbonyl)isoquinolin-3-yl)amino)-6-isopropyl-5,6-dihydro-4H-pyrazolo[1,5-d][1,4]diazepin-7(8H)-one] | 63 nM
10 | Cc1c(-c2cc3cc(Nc4ccn([C@H](C)C#N)n4)ncc3cc2F)cnc2c1NCCO2 (single isomer, unassigned) [Compound 109a, 2-(3-((7-fluoro-6-(8-methyl-2,3-dihydro-1H-pyrido[2,3-b][1,4]oxazin-7-yl)isoquinolin-3-yl)amino)-1H-pyrazol-1-yl)propanenitrile] | 2.17 nM
11 | Cc1ncc(-c2cc(F)c3cnc(Nc4cc5n(n4)CC(=O)NCC5)cc3c2)c(C)c1N [Compound 233, 2-((6-(5-amino-4,6-dimethylpyridin-3-yl)-8-fluoroisoquinolin-3-yl)amino)-5,6-dihydro-4H-pyrazolo[1,5-d][1,4]diazepin-7(8H)-one] | 0.155 nM
12 | CN1CCc2cc(Nc3cc4cc(-c5cccc6c5CCNC6)c(F)cc4cn3)nn2CC1=O [Compound 200, 2-((7′-fluoro-1,2,3,4-tetrahydro-[5,6′-biisoquinolin]-3′-yl)amino)-6-methyl-5,6-dihydro-4H-pyrazolo[1,5-d][1,4]diazepin-7(8H)-one] | 127 nM
13 | Cc1c(-c2cc3cc(Nc4cc5n(n4)CC(=O)N(C)CC5)ncc3cc2F)cnc2c1NS(=O)(=O)CO2 [Compound 193, 2-((7-fluoro-6-(8-methyl-2,2-dioxido-1H,3H-pyrido[3,2-e][1,3,4]oxathiazin-7-yl)isoquinolin-3-yl)amino)-6-methyl-5,6-dihydro-4H-pyrazolo[1,5-d][1,4]diazepin-7(8H)-one] | 23 nM
14 | Cc1c(N)cncc1-c1cc2cc(Nc3cc4n(n3)Cc3ncc(C)n3CC4)ncc2cc1F [Compound 163, N-(6-(5-amino-4-methylpyridin-3-yl)-7-fluoroisoquinolin-3-yl)-3-methyl-5,6-dihydro-11H-imidazo[1,2-a]pyrazolo[1,5-d][1,4]diazepin-8-amine] | 0.013 nM
15 | CNCc1cc(C)c(-c2ccc3cnc(Nc4cc5n(n4)CC(=O)N(C)CC5)cc3c2)c(F)c1 [Compound 222, 2-((6-(2-fluoro-6-methyl-4-((methylamino)methyl)phenyl)isoquinolin-3-yl)amino)-6-methyl-5,6-dihydro-4H-pyrazolo[1,5-d][1,4]diazepin-7(8H)-one] | 5.2 nM
16 | Cc1[nH]ncc1-c1cc2cc(Nc3cc4n(n3)CC(=O)N(C)CC4)ncc2c(O)c1F [Compound 202, 2-((7-fluoro-8-hydroxy-6-(5-methyl-1H-pyrazol-4-yl)isoquinolin-3-yl)amino)-6-methyl-5,6-dihydro-4H-pyrazolo[1,5-d][1,4]diazepin-7(8H)-one] | 119 nM
17 | Cc1c(-c2cc3cc(Nc4cc5n(n4)CC(=O)N(C)CC5)ncc3cc2F)cnc2c(=O)n(C)[nH]c12 [Compound 209, 2-((6-(2,7-dimethyl-3-oxo-2,3-dihydro-1H-pyrazolo[4,3-b]pyridin-6-yl)-7-fluoroisoquinolin-3-yl)amino)-6-methyl-5,6-dihydro-4H-pyrazolo[1,5-d][1,4]diazepin-7(8H)-one] | 1.9 nM
18 | Cc1c(-c2cc3cc(Nc4cc5n(n4)CC(=O)N(C)CC5)ncc3c(F)c2F)cnc2c1NCCO2 [Compound 138, 2-((7,8-difluoro-6-(8-methyl-2,3-dihydro-1H-pyrido[2,3-b][1,4]oxazin-7-yl)isoquinolin-3-yl)amino)-6-methyl-5,6-dihydro-4H-pyrazolo[1,5-d][1,4]diazepin-7(8H)-one] | 0.013 nM
19 | CO[C@@H]1CCNc2c1ncc(-c1cc(F)c3cnc(Nc4cc5n(n4)CC(=O)N(C)CC5)cc3c1)c2C (single isomer, unassigned) [Compound 234b] | 2.1 nM
20 | Cc1c(-c2cc3cc(Nc4cc5n(n4)CC(=O)NCC5)ncc3cc2F)cnc2c1NCC(F)(F)O2 [Compound 176, 2-((6-(3,3-difluoro-8-methyl-2,3-dihydro-1H-pyrido[2,3-b][1,4]oxazin-7-yl)-7-fluoroisoquinolin-3-yl)amino)-5,6-dihydro-4H-pyrazolo[1,5-d][1,4]diazepin-7(8H)-one] | 0.161 nM
21 | Cc1cc(N2CCNCC2)ncc1-c1cc2cc(Nc3cc4n(n3)CC(=O)N(C)CC4)ncc2cc1F [Compound 198, 2-((7-fluoro-6-(4-methyl-6-(piperazin-1-yl)pyridin-3-yl)isoquinolin-3-yl)amino)-6-methyl-5,6-dihydro-4H-pyrazolo[1,5-d][1,4]diazepin-7(8H)-one] | 4.2 nM
22 | Cc1c(-c2cc3cc(Nc4cc5n(n4)CC(=O)N(C)CC5)ncc3cc2F)cnc2c1NCC(C)(C)[C@H]2O (single isomer, unassigned) [Compound 241a] | 0.11 nM
23 | Cc1c(-c2cc3cc(Nc4cc5n(n4)CS(=O)(=O)N(C)C5)ncc3cc2F)cnc2c1NCC[C@@H]2O (single isomer, unassigned) [Compound 242a] | 0.457 nM
24 | Cc1c(-c2ccc3cnc(Nc4cc5n(n4)CC(=O)N(CCO)CC5)cc3c2F)cnc2c1NCCO2 [Compound 146, 2-((5-fluoro-6-(8-methyl-2,3-dihydro-1H-pyrido[2,3-b][1,4]oxazin-7-yl)isoquinolin-3-yl)amino)-6-(2-hydroxyethyl)-5,6-dihydro-4H-pyrazolo[1,5-d][1,4]diazepin-7(8H)-one] | 0.034 nM
25 | Cc1c(-c2c(F)cc3cnc(Nc4cc5n(n4)CC(=O)N(C)CC5)cc3c2F)cnc2c1NCCO2 [Compound 223, 2-((5,7-difluoro-6-(8-methyl-2,3-dihydro-1H-pyrido[2,3-b][1,4]oxazin-7-yl)isoquinolin-3-yl)amino)-6-methyl-5,6-dihydro-4H-pyrazolo[1,5-d][1,4]diazepin-7(8H)-one] | 0.04 nM
26 | Cc1c(CC#N)cncc1-c1cc(F)c2cnc(Nc3cc4n(n3)CC(=O)NCC4)cc2c1 [Compound 238, 2-(5-(8-fluoro-3-((7-oxo-5,6,7,8-tetrahydro-4H-pyrazolo[1,5-d][1,4]diazepin-2-yl)amino)isoquinolin-6-yl)-4-methylpyridin-3-yl)acetonitrile] | 0.076 nM
